Experimental findings from US9096554B2, “Drugs for inhibiting p38 and uses thereof” (UNIVERSIDAD AUTÓNOMA DE MADRID, priority 2011, dated 2015) are described below.

Experiment [1] has as its system LysM-GRK2^f/+ mice. Description: Carrageenan-induced hyperalgesia in LysM-GRK2f/+ mice, intrathecal injection. In kind it is in vivo. From the text:
To perform this assay, a previously described protocol was followed [Willemen H L, et al., Microglial/macrophage GRK2 determines duration of peripheral IL-1beta-induced hyperalgesia: contribution of spinal cord CX3CR1, p38 and IL-1 signaling. Pain. 2010 September; 150(3):550-60; and Eijkelkamp N, et al., (http://www.ncbi.nlm.nih.gov/pubmed/20147541; J. Neurosci. 2010 Feb. 10; 30(6):2138-49). Briefly, eight female LysM-GRK2^f/+ mice (2 mice per group, 4 paws for each condition) were subjected to an intraplantar injection of carrageenan (Sigma-Aldrich, […] of a 1% solution in saline) for inducing inflammatory-type hyperalgesia in the extremities. Seven (7) days after injecting carrageenan, the paw withdrawal latency time when the paw is in contact with heat was determined as an indication of inflammatory-type pain at time 0 (T=0). The carrier (20% DMSO) or Compound 1 at different concentrations (0.15, 0.5 and 1.5 μg in 5 μL of 20% DMSO) was then intrathecally injected.
The paw withdrawal latency periods were then measured at different times (0.5, 1, 2, 4, 6, 8, 10, 24, 48 and 96 hours after injecting the compound).
To evaluate the effect of Compound 5 on hyperalgesia induced in mice, a protocol similar to that described for Compound 1 in Example 9A was followed, but in this protocol, the known p38 MAPK inhibitor SB239063 (5 μg in 5 μL of 20% DMSO), the carrier (20% DMSO), or Compound 5 (4 μg in 5 μL of 20% DMSO) was intrathecally injected 7 days after injecting the carrageenan.

In experiment [2] the test system is p38 MAPK. Description: Activation of p38 MAPK in response to LPS and its activity (P-MK2, P-Hsp27) in THP-1 cells, Western Blot. To be noted: THP-1, LPS, 1 and 5 μM, FIG. 2B. In kind it is cell-based, human. How it is done:
This assay was performed to analyze the effect of Compound 1 on the activation of p38 MAPK and on its activity in a human monocytic cell line (THP-1) (American Type Culture Collection: http://www.atcc.org/) treated with different concentrations of said compound.
Briefly, human monocytic cells from said THP-1 cell line at a density of about 10^6 cells/ml were stimulated with bacterial LPS (Sigma #L2654) at a concentration of between 1 and 10 mg/ml (which may vary depending on the batch) for 1 hour in the absence or presence of Compound 1 at different concentrations (1 μM and 5 μM) dissolved in dimethyl sulfoxide (DMSO). DMSO was used as a control. The cells were lysed in a 100 mM pH 7.5 Tris/HCl buffer, 200 mM EDTA, 1 μM benzamidine, 10 mg/ml STI (soy trypsin inhibitor), 10 mg/ml bacitracin, 80 mU/ml aprotinin, 100 μM phenylmethanesulfonyl fluoride (PMSF) and phosSTOP (Roche, Ref.#04906845001). The samples were subsequently analyzed using Western Blot with specific antibodies. Briefly, the activation of p38 MAPK was analyzed by quantifying by densitometry the amount of p38 MAPK phosphorylated in the activation loop (TGY) by means of Western Blot with anti-phospho-T180-Y182-p38 antibodies (Cell Signaling, Ref.#9211) and by normalizing the values with those obtained for total p38 MAPK levels in each lysate. […]
A general note: Immunoblotting shows a protein as a band on a membrane.

Consider `Cc1ccc(Cl)cc1Nc1ccc([N+](=O)[O-])c2nonc12` [Compound 1, (5-chloro-2-methyl-phenyl)-(7-nitro-benzo[1,2,5]oxadiazol-4-yl)-amine], for which, in experiment [1] (dose of 0.3 μg intrathecal, FIG. 9B), the long-term analgesic effect result is recorded as “did not provide any long-term analgesic effect”. Also, the “time the reduction of hyperalgesia was maintained after administering” value in experiment [1] (doses of 0.5 and 1.5 μg intrathecal) is not below 96 h. In experiment [1] (doses of 0.5 and 1.5 μg intrathecal, 7 days after carrageenan, FIG. 9A), the “hyperalgesia (paw withdrawal latency to heat)” value is reported as “almost complete reduction of hyperalgesia”. The lowest effective dose in experiment [1] (intrathecal, FIG. 9B) was determined as 0.5 µg. For the same molecule, in experiment [2], the “activation of p38 MAPK (P-p38)” value was “decrease in the activation of p38 MAPK”; the “phosphorylation of MK2 and Hsp27 substrates” value is “decrease in the phosphorylation”.
